Reference: ChEMBL document CHEMBL1158365, “Alkyne chemistry in crop protection” (2009)
In brackets after ≈: the same amount, converted by molar mass.

How the values were obtained:
Type in all cases: functional
[1] = tested on: Ipomoea purpurea; assay: Herbicidal activity against Ipomoea purpurea
[2] = tested on: Abutilon theophrasti; assay: Herbicidal activity against Abutilon theophrasti
[3] = tested on: Plasmopara viticola; assay: Antioomycetic activity against Plasmopara viticola
[4] = tested on: Phytophthora infestans; assay: Antioomycetic activity against Phytophthora infestans

Row | SMILES | ED85 [1] [g/ha] | ED85 [2] [g/ha] | EC80 [3] [mg/L] | EC80 [4] [mg/L]
1 | Cn1c(C(F)(F)F)cc(=O)n(-c2cc3c(ccc(=O)n3C)cc2F)c1=O | 10 | 10 | – | –
2 | C#CCOc1ccc(CCNC(=O)C(OC)c2ccc(Cl)cc2)cc1OC (centres undefined) | – | – | 3.5 (≈ 9.02 µM) | 9.7 (≈ 25 µM)
3 | C#CCOc1ccc(CCNC(=O)C(OC(=O)CC)c2ccc(Cl)cc2)cc1OC (centres undefined) | – | – | 2.8 (≈ 6.51 µM) | 4.2 (≈ 9.77 µM)
4 | CCCn1c(=O)ccc2cc(F)c(-n3c(=O)cc(C(F)(F)F)n(C)c3=O)cc21 | 30 | 10 | – | –
5 | C#CCOc1ccc(CCNC(=O)C(OCC)c2ccc(Cl)cc2)cc1OC (centres undefined) | – | – | 2 (≈ 4.98 µM) | 4.6 (≈ 11.4 µM)
6 | Cn1c(C(F)(F)F)cc(=O)n(-c2cc3[nH]c(=O)ccc3cc2F)c1=O | 30 | 30 | – | –
7 | C#CCOc1ccc(CCNC(=O)C(OC(C)C)c2ccc(Cl)cc2)cc1OC (centres undefined) | – | – | 10.1 (≈ 24.3 µM) | 3.1 (≈ 7.45 µM)
8 | C#CCOc1ccc(CCNC(=O)C(O)c2ccc(Cl)cc2)cc1OC (centres undefined) | – | – | 10.4 (≈ 27.8 µM) | 34.6 (≈ 92.6 µM)
9 | CC(C)Cn1c(=O)ccc2cc(F)c(-n3c(=O)cc(C(F)(F)F)n(C)c3=O)cc21 | 30 | 10 | – | –
10 | C#CCOc1ccc(CCNC(=O)C(OCCC)c2ccc(Cl)cc2)cc1OC (centres undefined) | – | – | 31 (≈ 74.5 µM) | 5.4 (≈ 13 µM)
11 | C#CCOc1ccc(CCNC(=O)C(OC(=O)OC)c2ccc(Cl)cc2)cc1OC (centres undefined) | – | – | 110 (≈ 254 µM) | 38.6 (≈ 89.4 µM)
12 | C=CCn1c(=O)ccc2cc(F)c(-n3c(=O)cc(C(F)(F)F)n(C)c3=O)cc21 | 3 | 1 | – | –
13 | C#CCOc1ccc(CCNC(=O)C(OCCF)c2ccc(Cl)cc2)cc1OC (centres undefined) | – | – | 8.9 (≈ 21.2 µM) | 4.7 (≈ 11.2 µM)
14 | Cn1c(C(F)(F)F)cc(=O)n(-c2cc3c(ccc(=O)n3CC#N)cc2F)c1=O | 30 | 10 | – | –
15 | C#CCOc1ccc(CCNC(=O)C(OC(C)(C)C#C)c2ccc(Cl)cc2)cc1OC (centres undefined) | – | – | 3.5 (≈ 7.96 µM) | 4.9 (≈ 11.1 µM)
16 | COC(=O)Cn1c(=O)ccc2cc(F)c(-n3c(=O)cc(C(F)(F)F)n(C)c3=O)cc21 | 100 | 10 | – | –
17 | CCn1c(=O)ccc2cc(F)c(-n3c(=O)cc(C(F)(F)F)n(C)c3=O)cc21 | 10 | 3 | – | –
18 | C#CCOc1ccc(CCNC(=O)C(OC(=O)CC#N)c2ccc(Cl)cc2)cc1OC (centres undefined) | – | – | 4.9 (≈ 11.1 µM) | 3.1 (≈ 7.03 µM)
19 | C#CCOc1ccc(CCNC(=O)C(OCC#CC)c2ccc(Cl)cc2)cc1OC (centres undefined) | – | – | 14 (≈ 32.9 µM) | 18.3 (≈ 43 µM)
20 | C#CCOc1ccc(CCNC(=O)C(OCC=C)c2ccc(Cl)cc2)cc1OC (centres undefined) | – | – | 18.6 (≈ 44.9 µM) | 44.1 (≈ 107 µM)
21 | C#CCn1c(=O)ccc2cc(F)c(-n3c(=O)cc(C(F)(F)F)n(C)c3=O)cc21 | 3 | 1 | – | –
22 | C#CCOc1ccc(CCNC(=O)C(OCC#C)c2ccc(Cl)cc2)cc1OC (centres undefined) [MANDIPROPAMID] | – | – | 1.2 (≈ 2.91 µM) | 0.1 (≈ 0.243 µM)
